# Laboratory results taken from PubChem BioAssay (NCI).
#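 Where inhibition never reached the appropriate level, the endpoint shown equals the highest concentration tested. Otherwise, values were interpolated linearly from a five-concentration, 48-hour dose response in 96-well plates. The concentration for full growth arrest is given as TGI.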
# Experiments:
# Assay in all cases: inhibition of tumour cell growth, NCI panel, 48 h
# 786-0 renal = tested on: 786-0 renal
# A498 renal = tested on: A498 renal
# A549 NSCLC = tested on: A549 NSCLC
# ACHN renal = tested on: ACHN renal
# BT-549 breast = tested on: BT-549 breast
# CAKI-1 renal = tested on: CAKI-1 renal
# CCRF-CEM leukemia = tested on: CCRF-CEM leukemia
# COLO 205 colon = tested on: COLO 205 colon
# DU-145 prostate = tested on: DU-145 prostate
# EKVX NSCLC = tested on: EKVX NSCLC
# HCC-2998 colon = tested on: HCC-2998 colon
# HCT-116 colon = tested on: HCT-116 colon
# HCT-15 colon = tested on: HCT-15 colon
# HL-60(TB) leukemia = tested on: HL-60(TB) leukemia
# HOP-62 NSCLC = tested on: HOP-62 NSCLC
# HOP-92 NSCLC = tested on: HOP-92 NSCLC
# HT29 colon = tested on: HT29 colon
# IGROV1 ovarian = tested on: IGROV1 ovarian
# K-562 leukemia = tested on: K-562 leukemia
# KM12 colon = tested on: KM12 colon
# LOX IMVI melanoma = tested on: LOX IMVI melanoma
# M14 melanoma = tested on: M14 melanoma
# MALME-3M melanoma = tested on: MALME-3M melanoma
# MCF7 breast = tested on: MCF7 breast
# MDA-MB-231 breast = tested on: MDA-MB-231 breast
# MDA-MB-435 = tested on: MDA-MB-435
# MDA-N = tested on: MDA-N
# MOLT-4 leukemia = tested on: MOLT-4 leukemia
# NCI-H226 lung = tested on: NCI-H226 lung
# NCI-H23 lung = tested on: NCI-H23 lung
# NCI-H460 lung = tested on: NCI-H460 lung
# NCI-H522 lung = tested on: NCI-H522 lung
# NCI/ADR-RES ovarian = tested on: NCI/ADR-RES ovarian
# OVCAR-3 ovarian = tested on: OVCAR-3 ovarian
# OVCAR-4 ovarian = tested on: OVCAR-4 ovarian
# OVCAR-5 ovarian = tested on: OVCAR-5 ovarian
# OVCAR-8 ovarian = tested on: OVCAR-8 ovarian
# PC-3 prostate = tested on: PC-3 prostate
# RPMI-8226 leukemia = tested on: RPMI-8226 leukemia
# RXF 393 renal = tested on: RXF 393 renal
# SF-268 CNS = tested on: SF-268 CNS
# SF-295 CNS = tested on: SF-295 CNS
# SF-539 CNS = tested on: SF-539 CNS
# SK-MEL-2 melanoma = tested on: SK-MEL-2 melanoma
# SK-MEL-28 melanoma = tested on: SK-MEL-28 melanoma
# SK-MEL-5 melanoma = tested on: SK-MEL-5 melanoma
# SK-OV-3 ovarian = tested on: SK-OV-3 ovarian
# SN12C renal = tested on: SN12C renal
# SNB-19 CNS = tested on: SNB-19 CNS
# SNB-75 CNS = tested on: SNB-75 CNS
# SR leukemia = tested on: SR leukemia
# SW-620 colon = tested on: SW-620 colon
# T-47D breast = tested on: T-47D breast
# TK-10 renal = tested on: TK-10 renal
# U251 CNS = tested on: U251 CNS
# UACC-257 melanoma = tested on: UACC-257 melanoma
# UACC-62 melanoma = tested on: UACC-62 melanoma
# UO-31 renal = tested on: UO-31 renal
# HS 578T breast = tested on: HS 578T breast
structure (smiles),measurement,setting,value
O=C1CCN2c3ccccc3[C@H]3Cc4cccc(c4[C@@H]2C3)CCO1,TGI,786-0 renal,> 100 µM
same,TGI,A498 renal,> 100 µM
same,TGI,A549 NSCLC,> 100 µM
same,TGI,ACHN renal,> 100 µM
same,TGI,BT-549 breast,> 100 µM
same,TGI,CAKI-1 renal,> 100 µM
same,TGI,CCRF-CEM leukemia,> 100 µM
same,TGI,COLO 205 colon,> 100 µM
same,TGI,DU-145 prostate,> 100 µM
same,TGI,EKVX NSCLC,> 100 µM
same,TGI,HCC-2998 colon,> 100 µM
same,TGI,HCT-116 colon,> 100 µM
same,TGI,HCT-15 colon,> 100 µM
same,TGI,HL-60(TB) leukemia,48.8 µM
same,TGI,HOP-62 NSCLC,> 100 µM
same,TGI,HOP-92 NSCLC,> 100 µM
same,TGI,HT29 colon,> 100 µM
same,TGI,IGROV1 ovarian,84.9 µM
same,TGI,K-562 leukemia,80.7 µM
same,TGI,KM12 colon,> 100 µM
same,TGI,LOX IMVI melanoma,> 100 µM
same,TGI,M14 melanoma,49.1 µM
same,TGI,MALME-3M melanoma,> 100 µM
same,TGI,MCF7 breast,> 100 µM
same,TGI,MDA-MB-231 breast,> 100 µM
same,TGI,MDA-MB-435,> 100 µM
same,TGI,MDA-N,80.3 µM
same,TGI,MOLT-4 leukemia,54.5 µM
same,TGI,NCI-H226 lung,> 100 µM
same,TGI,NCI-H23 lung,> 100 µM
same,TGI,NCI-H460 lung,> 100 µM
same,TGI,NCI-H522 lung,> 100 µM
same,TGI,NCI/ADR-RES ovarian,> 100 µM
same,TGI,OVCAR-3 ovarian,86 µM
same,TGI,OVCAR-4 ovarian,> 100 µM
same,TGI,OVCAR-5 ovarian,> 100 µM
same,TGI,OVCAR-8 ovarian,> 100 µM
same,TGI,PC-3 prostate,> 100 µM
same,TGI,RPMI-8226 leukemia,> 100 µM
same,TGI,RXF 393 renal,> 100 µM
same,TGI,SF-268 CNS,> 100 µM
same,TGI,SF-295 CNS,> 100 µM
same,TGI,SF-539 CNS,> 100 µM
same,TGI,SK-MEL-2 melanoma,> 100 µM
same,TGI,SK-MEL-28 melanoma,> 100 µM
same,TGI,SK-MEL-5 melanoma,54.3 µM
same,TGI,SK-OV-3 ovarian,> 100 µM
same,TGI,SN12C renal,37.4 µM
same,TGI,SNB-19 CNS,> 100 µM
same,TGI,SNB-75 CNS,96.7 µM
same,TGI,SR leukemia,74.6 µM
same,TGI,SW-620 colon,> 100 µM
same,TGI,T-47D breast,> 100 µM
same,TGI,TK-10 renal,> 100 µM
same,TGI,U251 CNS,> 100 µM
same,TGI,UACC-257 melanoma,> 100 µM
same,TGI,UACC-62 melanoma,> 100 µM
same,TGI,UO-31 renal,76.4 µM
O=c1[nH]/c(=C/c2ccc3c(c2)OCO3)c(=O)[nH]/c1=C/c1ccc2c(c1)OCO2,TGI,786-0 renal,> 10 µM
same,TGI,A498 renal,> 10 µM
same,TGI,A549 NSCLC,> 10 µM
same,TGI,ACHN renal,> 10 µM
same,TGI,BT-549 breast,> 10 µM
same,TGI,CAKI-1 renal,> 10 µM
same,TGI,CCRF-CEM leukemia,> 10 µM
same,TGI,COLO 205 colon,> 10 µM
same,TGI,DU-145 prostate,> 10 µM
same,TGI,EKVX NSCLC,> 10 µM
same,TGI,HCC-2998 colon,> 10 µM
same,TGI,HCT-116 colon,> 10 µM
same,TGI,HCT-15 colon,> 10 µM
same,TGI,HOP-62 NSCLC,> 10 µM
same,TGI,HOP-92 NSCLC,> 10 µM
same,TGI,HS 578T breast,> 10 µM
same,TGI,HT29 colon,> 10 µM
same,TGI,IGROV1 ovarian,> 10 µM
same,TGI,K-562 leukemia,> 10 µM
same,TGI,KM12 colon,> 10 µM
same,TGI,LOX IMVI melanoma,> 10 µM
same,TGI,M14 melanoma,> 10 µM
same,TGI,MALME-3M melanoma,> 10 µM
same,TGI,MCF7 breast,> 10 µM
same,TGI,MDA-MB-231 breast,> 10 µM
same,TGI,MDA-MB-435,> 10 µM
same,TGI,MDA-N,> 10 µM
same,TGI,MOLT-4 leukemia,> 10 µM
same,TGI,NCI-H226 lung,> 10 µM
same,TGI,NCI-H23 lung,> 10 µM
same,TGI,NCI-H460 lung,> 10 µM
same,TGI,NCI-H522 lung,> 10 µM
same,TGI,NCI/ADR-RES ovarian,> 10 µM
same,TGI,OVCAR-3 ovarian,> 10 µM
same,TGI,OVCAR-4 ovarian,> 10 µM
same,TGI,OVCAR-5 ovarian,> 10 µM
same,TGI,OVCAR-8 ovarian,> 10 µM
same,TGI,PC-3 prostate,> 10 µM
same,TGI,RPMI-8226 leukemia,> 10 µM
same,TGI,RXF 393 renal,> 10 µM
same,TGI,SF-268 CNS,> 10 µM
same,TGI,SF-295 CNS,> 10 µM
same,TGI,SF-539 CNS,> 10 µM
same,TGI,SK-MEL-2 melanoma,> 10 µM
same,TGI,SK-MEL-28 melanoma,> 10 µM
same,TGI,SK-MEL-5 melanoma,> 10 µM
same,TGI,SK-OV-3 ovarian,> 10 µM
same,TGI,SN12C renal,> 10 µM
same,TGI,SNB-19 CNS,> 10 µM
same,TGI,SNB-75 CNS,> 10 µM
same,TGI,SW-620 colon,> 10 µM
same,TGI,T-47D breast,> 10 µM
same,TGI,TK-10 renal,> 10 µM
same,TGI,U251 CNS,> 10 µM
same,TGI,UACC-257 melanoma,> 10 µM
same,TGI,UACC-62 melanoma,> 10 µM
same,TGI,UO-31 renal,> 10 µM
[N-]=[N+]=Nc1ccccc1-c1ccccc1[N+](=O)[O-],TGI,786-0 renal,> 100 µM
same,TGI,A498 renal,> 100 µM
same,TGI,A549 NSCLC,> 100 µM
same,TGI,ACHN renal,> 100 µM
same,TGI,BT-549 breast,> 100 µM
same,TGI,CAKI-1 renal,> 100 µM
same,TGI,DU-145 prostate,> 100 µM
same,TGI,EKVX NSCLC,> 100 µM
same,TGI,HCT-116 colon,> 100 µM
same,TGI,HCT-15 colon,> 100 µM
same,TGI,HOP-62 NSCLC,> 100 µM
same,TGI,HOP-92 NSCLC,> 100 µM
same,TGI,HS 578T breast,> 100 µM
same,TGI,HT29 colon,> 100 µM
same,TGI,IGROV1 ovarian,> 100 µM
same,TGI,K-562 leukemia,> 100 µM
same,TGI,KM12 colon,> 100 µM
same,TGI,LOX IMVI melanoma,> 100 µM
same,TGI,M14 melanoma,> 100 µM
same,TGI,MALME-3M melanoma,> 100 µM
same,TGI,MCF7 breast,> 100 µM
same,TGI,MDA-MB-231 breast,> 100 µM
same,TGI,MDA-MB-435,> 100 µM
same,TGI,MDA-N,> 100 µM
same,TGI,MOLT-4 leukemia,65.1 µM
same,TGI,NCI-H23 lung,> 100 µM
same,TGI,NCI-H460 lung,99 µM
same,TGI,NCI-H522 lung,45.4 µM
same,TGI,NCI/ADR-RES ovarian,92.1 µM
same,TGI,OVCAR-3 ovarian,> 100 µM
same,TGI,OVCAR-4 ovarian,> 100 µM
same,TGI,OVCAR-5 ovarian,> 100 µM
same,TGI,OVCAR-8 ovarian,> 100 µM
same,TGI,PC-3 prostate,> 100 µM
same,TGI,RPMI-8226 leukemia,> 100 µM
same,TGI,RXF 393 renal,> 100 µM
same,TGI,SF-268 CNS,> 100 µM
same,TGI,SF-295 CNS,> 100 µM
same,TGI,SK-MEL-2 melanoma,> 100 µM
same,TGI,SK-MEL-28 melanoma,> 100 µM
same,TGI,SK-OV-3 ovarian,> 100 µM
same,TGI,SN12C renal,> 100 µM
same,TGI,SNB-19 CNS,> 100 µM
same,TGI,SNB-75 CNS,> 100 µM
same,TGI,SR leukemia,> 100 µM
same,TGI,SW-620 colon,> 100 µM
same,TGI,T-47D breast,> 100 µM
same,TGI,TK-10 renal,> 100 µM
same,TGI,U251 CNS,> 100 µM
same,TGI,UACC-257 melanoma,71.7 µM
same,TGI,UACC-62 melanoma,> 100 µM
same,TGI,UO-31 renal,> 100 µM
